Test [1] has as its system E. coli mL308 225. Description: In Vitro Anti-Bacterial Activity Assay (MIC), gram negative. Particulars: for MIC: Escherichia coli, ML308225, 18 h. It counts as cell-based.
Test [2] concerns S. aureus RN450. As to the kind of experiment: In Vitro Anti-Bacterial Activity Assay (MIC), gram positive. The format is cell-based. Conditions: Staphylococcus aureus, RN450, 18 h.
The mark [3] stands for this setting: gram negative bacteria, read-out: Antibiotic Activity Gram − (MIC).
The mark [4] stands for this setting: gram positive bacteria, read-out: Antibiotic Activity Gram + (MIC).
Setting [5] is: MIC class, Table 3, read-out: Antibiotic Activity Gram −.
Setting [6] is: MIC class, Table 3, read-out: Antibiotic Activity Gram +.
[7] abbreviates: MIC class, Table 3 (Continued), read-out: Gram+ activity.
[8] abbreviates: MIC class, Table 3 (Continued), read-out: Gram− activity.

Where two headings read alike, the source gives them in different places. A value given as a limit tells only on which side of the number the result lay.

In the case of `CC1C(C(=O)[C@@H]2CC(=O)C(C(N)=O)=C(O)[C@H]2N(C)C)=C(C(=O)NCC(C)(C)C)C(=O)c2c(O)cccc21` (stereo partly shown), the MIC in test [1] (setting [3]) and in test [2] (setting [4]) was > 4 µg/mL in each case.

For `CN(C)CC(=O)NCc1ccc(-c2ccc(O)c3c2C[C@H]2C[C@H]4[C@H](N(C)C)C(O)=C(C(N)=O)C(=O)[C@@]4(O)C(O)=C2C3=O)cc1`, the results for the MIC in test [1] (setting [3]) and in test [2] (setting [4]) were > 4 µg/mL and < 4 µg/mL, respectively.

Turning to `CN(C)c1ccc(-c2cc(C(C)(C)C)c(O)c3c2C[C@H]2C[C@H]4[C@H](N(C)C)C(O)=C(C(N)=O)C(=O)[C@@]4(O)C(O)=C2C3=O)cc1`, the MIC in test [1] (setting [3]) and in test [2] (setting [4]) was > 4 µg/mL in each case.

`CN(C)c1cc(-c2ccoc2)c(O)c2c1C[C@H]1C[C@H]3[C@H](N(C)C)C(O)=C(C(N)=O)C(=O)[C@@]3(O)C(O)=C1C2=O` [KU]: the values for the MIC in test [1] (setting [5]) and in test [2] (setting [6]) were > 4 µg/mL and < 4 µg/mL, respectively.

`CN(C)[C@@H]1C(O)=C(C(N)=O)C(=O)[C@@]2(O)C(O)=C3C(=O)c4c(O)ccc(-c5ccc(C(C)(C)C)cc5)c4C[C@H]3C[C@@H]12` [drawing 3327]: the “Gram− activity” value in test [1] (number printed instead of class symbol, Table 3 (Continued)) is listed as 1.5. Besides, the MIC in test [2] (setting [7]) is < 4 µg/mL.

In the case of `CCOc1ccc(-c2ccc(O)c3c2C[C@H]2C[C@H]4[C@H](N(C)C)C(O)=C(C(N)=O)C(=O)[C@@]4(O)C(O)=C2C3=O)cc1CN` [GJ], the MIC in test [1] (setting [5]) and in test [2] (setting [6]) was < 4 µg/mL throughout.

On to `CCCC#Cc1cc(N(C)C)c2c(c1O)C(=O)C1=C(O)[C@]3(O)C(=O)C(C(N)=O)=C(O)[C@@H](N(C)C)[C@@H]3C[C@@H]1C2` [DY], for which the values for the MIC in test [1] (setting [5]) and in test [2] (setting [6]) were > 4 µg/mL and < 4 µg/mL, respectively.

With `CN(Cc1cc(N(C)C)c2c(c1O)C(=O)C1=C(O)[C@]3(O)C(=O)C(C(N)=O)=C(O)[C@@H](N(C)C)[C@@H]3C[C@@H]1C2)CC(C)(C)C`, the MIC in test [1] (setting [3]) and in test [2] (setting [4]) was < 4 µg/mL each time.

As to `CCCCOC(=O)C#Cc1cc(N(C)C)c2c(c1O)C(=O)C1=C(O)[C@]3(O)C(=O)C(C(N)=O)=C(O)[C@@H](N(C)C)[C@@H]3C[C@@H]1C2` [DL], the MIC in test [1] (setting [5]) and in test [2] (setting [6]) was > 4 µg/mL throughout.

Consider `CN(C)c1cc(C#CC2=CCCCC2)c(O)c2c1C[C@H]1C[C@H]3[C@H](N(C)C)C(O)=C(C(N)=O)C(=O)[C@@]3(O)C(O)=C1C2=O`, for which the MIC in test [1] (setting [8]) and in test [2] (setting [7]) was < 4 µg/mL throughout.

Take `COC(=O)c1ccc(O)c2c1C[C@H]1C[C@H]3[C@H](N(C)C)C(O)=C(C(N)=O)C(=O)[C@@]3(O)C(O)=C1C2=O`: the MIC in test [1] (setting [3]) and in test [2] (setting [4]) was < 4 µg/mL in each case.

In the case of `CCC(C)CNCc1ccc(O)c2c1C[C@H]1C[C@H]3[C@H](N(C)C)C(O)=C(C(N)=O)C(=O)[C@@]3(O)C(O)=C1C2=O` (stereo partly shown) [KE], the MIC in test [1] (setting [5]) and in test [2] (setting [6]) was < 4 µg/mL throughout.

As for `Cc1ccc(CCc2ccc(O)c3c2C[C@H]2C[C@H]4[C@H](N(C)C)C(O)=C(C(N)=O)C(=O)[C@@]4(O)C(O)=C2C3=O)cc1`, the MIC in test [1] (setting [8]) and in test [2] (setting [7]) was < 4 µg/mL each time.

Consider `CN(C)[C@@H]1C(O)=C(C(N)=O)C(=O)[C@@]2(O)C(O)=C3C(=O)c4c(O)ccc(C5CCCC5)c4C[C@H]3C[C@@H]12`, for which the MIC in test [1] (setting [3]) and in test [2] (setting [4]) was < 4 µg/mL each time.

On to `CN(C)[C@@H]1C(O)=C(C(N)=O)C(=O)[C@@]2(O)C(O)=C3C(=O)c4c(O)ccc(-c5ccc6c(c5)OCO6)c4C[C@H]3C[C@@H]12` [drawing 3479], for which the MIC in test [1] (setting [3]) and in test [2] (setting [4]) was < 4 µg/mL in each case.

In the case of `CN(C)[C@@H]1C(O)=C(C(N)=O)C(=O)[C@@]2(O)C(O)=C3C(=O)c4c(O)ccc(CNC(=O)OCC(C)(C)C)c4C[C@H]3C[C@@H]12` [FU], the MIC in test [1] (setting [5]) is > 4 µg/mL; in test [2] (setting [6]), < 4 µg/mL.

As for `COc1ccc(-c2ccc(O)c3c2C[C@H]2C[C@H]4[C@H](N(C)C)C(O)=C(C(N)=O)C(=O)[C@@]4(O)C(O)=C2C3=O)cc1CN` [HI], the values for the MIC in test [1] (setting [5]) and in test [2] (setting [6]) were > 4 µg/mL and < 4 µg/mL, respectively.

For `CC(=O)c1cccc(-c2ccc(O)c3c2C[C@H]2C[C@H]4[C@H](N(C)C)C(O)=C(C(N)=O)C(=O)[C@@]4(O)C(O)=C2C3=O)c1` [AO], the MIC in test [1] (setting [5]) is > 4 µg/mL; in test [2] (setting [6]), < 4 µg/mL.

Regarding `CCCCCC(=O)c1ccc(O)c2c1C[C@H]1C[C@H]3[C@H](N(C)C)C(O)=C(C(N)=O)C(=O)[C@@]3(O)C(O)=C1C2=O`, the MIC in test [1] (setting [3]) and in test [2] (setting [4]) was < 4 µg/mL each time.

Turning to `COC1C(C(N)=O)=C(O)[C@@H](N(C)C)[C@@H]2[C@@H](O)[C@H]3C(=C(O)[C@]12O)C(=O)c1c(O)cccc1[C@@H]3C` (stereo partly shown), the MIC in test [1] (setting [3]) and in test [2] (setting [4]) was > 4 µg/mL each time.

Turning to `COC(=O)CCC(=O)Nc1ccc(-c2ccc(O)c3c2C[C@H]2C[C@H]4[C@H](N(C)C)C(O)=C(C(N)=O)C(=O)[C@@]4(O)C(O)=C2C3=O)cc1`, the MIC in test [1] (setting [3]) is > 4 µg/mL; in test [2] (setting [4]) it was < 4 µg/mL.

Consider `Cc1ccnc(-c2ccc(O)c3c2C[C@H]2C[C@H]4[C@H](N(C)C)C(O)=C(C(N)=O)C(=O)[C@@]4(O)C(O)=C2C3=O)c1`, for which the MIC in test [1] (setting [3]) and in test [2] (setting [4]) was < 4 µg/mL in each case.

Consider `CC(CC(F)(F)F)N(C)Cc1cc(N(C)C)c2c(c1O)C(=O)C1=C(O)[C@]3(O)C(=O)C(C(N)=O)=C(O)[C@@H](N(C)C)[C@@H]3C[C@@H]1C2` (stereo partly shown), for which the MIC in test [1] (setting [3]) and in test [2] (setting [4]) was < 4 µg/mL throughout.

With `CN(C)c1cc(CNC(=O)OCC(Cl)(Cl)Cl)c(O)c2c1C[C@H]1C[C@H]3[C@H](N(C)C)C(O)=C(C(N)=O)C(=O)[C@@]3(O)C(O)=C1C2=O` [FI], the results for the MIC in test [1] (setting [5]) and in test [2] (setting [6]) were > 4 µg/mL and < 4 µg/mL, respectively.

As for `CCN(CC)Cc1cc(-c2ccoc2)c2c(c1O)C(=O)C1=C(O)[C@]3(O)C(=O)C(C(N)=O)=C(O)[C@@H](N(C)C)[C@@H]3C[C@@H]1C2`, the MIC in test [1] (setting [3]) was > 4 µg/mL; in test [2] (setting [4]), < 4 µg/mL.

As for `CN(C)c1cc(CNC(=O)[C@@H]2CCCN2C)c(O)c2c1C[C@H]1C[C@H]3[C@H](N(C)C)C(O)=C(C(N)=O)C(=O)[C@@]3(O)C(O)=C1C2=O`, the MIC was > 4 µg/mL in test [1] (setting [3]) and < 4 µg/mL in test [2] (setting [4]).

Consider `CN(C)[C@@H]1C(O)=C(C(N)=O)C(=O)[C@@]2(O)C(O)=C3C(=O)c4c(O)ccc(-c5cccnc5)c4C[C@H]3C[C@@H]12`, for which the MIC in test [1] (setting [3]) and in test [2] (setting [4]) was < 4 µg/mL throughout.

Turning to `CN(C)[C@@H]1C(O)=C(C(N)=O)C(=O)[C@@]2(O)C(O)=C3C(=O)c4c(cccc4OCCCO)C[C@H]3C[C@@H]12`, the MIC in test [1] (setting [3]) and in test [2] (setting [4]) was > 4 µg/mL in each case.

On to `C[C@H]1c2ccc(CNC(=O)c3ccccc3)c(O)c2C(=O)C2=C(O)[C@]3(O)C(=O)C(C(N)=O)=C(O)[C@@H](N(C)C)[C@@H]3[C@@H](O)[C@@H]21` [JO], for which the MIC was > 4 µg/mL in test [1] (setting [5]) and < 4 µg/mL in test [2] (setting [6]).

`CN(C)[C@@H]1C(O)=C(C(N)=O)C(=O)[C@@]2(O)C(O)=C3C(=O)c4c(ccc(N5CCOCC5)c4O)C[C@H]3C[C@@H]12`: the MIC in test [1] (setting [3]) and in test [2] (setting [4]) was > 4 µg/mL throughout.

In the case of `CN(C)[C@@H]1C(O)=C(C(N)=O)C(=O)[C@@]2(O)C(O)=C3C(=O)c4c(O)ccc(-c5cccc(C(N)=O)c5)c4C[C@H]3C[C@@H]12` [CN], the MIC in test [1] (setting [5]) and in test [2] (setting [6]) was < 4 µg/mL each time.

`CN(C)c1cc(NC(=N)NCc2ccccc2)c(O)c2c1C[C@H]1C[C@H]3C(N(C)C)C(O)=C(C(N)=O)C(=O)[C@@]3(O)C(O)=C1C2=O` (stereo partly shown) [GM]: the MIC in test [1] (setting [5]) and in test [2] (setting [6]) was > 4 µg/mL throughout.

In the case of `CN(C)[C@@H]1C(O)=C(C(N)=O)C(=O)[C@@]2(O)C(O)=C3C(=O)c4c(O)ccc(C#CCNS(C)(=O)=O)c4C[C@H]3C[C@@H]12` [CM], the MIC in test [1] (setting [5]) and in test [2] (setting [6]) was > 4 µg/mL in each case.

Take `CN(C)c1cc(NC(=S)Nc2cccc3ccccc23)c(O)c2c1C[C@H]1C[C@H]3[C@H](N(C)C)C(O)=C(C(N)=O)C(=O)[C@@]3(O)C(O)=C1C2=O` [CA]: the MIC in test [1] (setting [5]) was > 4 µg/mL; in test [2] (setting [6]) it was < 4 µg/mL.

On to `CN(C)c1cc(NC2CC(C)(C)NC(C)(C)C2)c(O)c2c1C[C@H]1C[C@H]3[C@H](N(C)C)C(O)=C(C(N)=O)C(=O)[C@@]3(O)C(O)=C1C2=O`, for which the MIC in test [1] (setting [3]) and in test [2] (setting [4]) was > 4 µg/mL throughout.

Consider `CN(C)[C@@H]1C(O)=C(C(N)=O)C(=O)[C@@]2(O)C(O)=C3C(=O)c4c(O)ccc(/C=C/c5c(F)c(F)c(F)c(F)c5F)c4C[C@H]3C[C@@H]12`, for which the MIC was > 4 µg/mL in test [1] (setting [8]) and < 4 µg/mL in test [2] (setting [7]).

Take `CN(C)c1cc(NCc2ccc(C#N)cc2)c(O)c2c1C[C@H]1C[C@H]3[C@H](N(C)C)C(O)=C(C(N)=O)C(=O)[C@@]3(O)C(O)=C1C2=O`: the MIC in test [1] (setting [3]) and in test [2] (setting [4]) was > 4 µg/mL each time.

On to `CN(C)c1cc(CNCc2ccccc2F)c(O)c2c1C[C@H]1C[C@H]3[C@H](N(C)C)C(O)=C(C(N)=O)C(=O)[C@@]3(O)C(O)=C1C2=O`, for which the MIC in test [1] (setting [3]) was > 4 µg/mL; in test [2] (setting [4]), < 4 µg/mL.

Consider `CN1CCC(NCc2ccc(O)c3c2C[C@H]2C[C@H]4[C@H](N(C)C)C(O)=C(C(N)=O)C(=O)[C@@]4(O)C(O)=C2C3=O)CC1` [KY], for which the MIC in test [1] (setting [5]) and in test [2] (setting [6]) was > 4 µg/mL in each case.

In the case of `CN1CCCC1=Nc1ccc(-c2ccc(O)c3c2C[C@H]2C[C@H]4[C@@H](N(C)C)C(O)=C(C(N)=O)C(=O)[C@@]4(O)C(O)=C2C3=O)cc1` [GP], the figures for the MIC in test [1] (setting [5]) and in test [2] (setting [6]) were > 4 µg/mL and < 4 µg/mL, respectively.

With `CCCOc1cccc2c1C(=O)C1=C(O)[C@]3(O)C(=O)C(C(N)=O)=C(O)[C@@H](N(C)C)[C@@H]3C[C@@H]1C2` [drawing 3578], the MIC in test [1] (setting [3]) and in test [2] (setting [4]) was > 4 µg/mL in each case.

The values are drawn from patent publication US20150141381A1, “TETRACYCLINE COMPOUNDS HAVING TARGET THERAPEUTIC ACTIVITIES” (Paratek Pharmaceuticals, Inc., priority 2001, published 2015).
